# Results published in ChEMBL document CHEMBL6078637, “Cyclic Diguanylate G-Quadruplex Inducer-Quorum Sensing Inhibitor Hybrids as Bifunctional Anti-biofilm and Anti-virulence Agents Against Pseudomonas aeruginosa” (J Med Chem, 2024).
# Calls of active or inactive are those of the source. The calls are words filed in the database; no cut-off is given here.
# How the values were obtained:
# [1] = Inhibition of quorum sensing system in Pseudomonas aeruginosa PAO1 harboring mini-ctx-lasB-lacZ at 10 uM measured after 16 hrs by ONPG test relative to control
# Pseudomonas aeruginosa [2] = test: Antibacterial activity against Pseudomonas aeruginosa PAO1 incubated for 24 hrs by absorbance based assay; assay type: functional
# Pseudomonas aeruginosa [3] = test: Antibiofilm activity against Pseudomonas aeruginosa PAO1 harboring wspF mutant assessed as inhibition rate at 1.25 uM incubated for 24 hrs by absorbance based assay relative to control; assay type: functional
# Pseudomonas aeruginosa [4] = test: Antibiofilm activity against Pseudomonas aeruginosa PAO1 harboring wspF mutant assessed as inhibition rate at 10 uM incubated for 24 hrs by absorbance based assay relative to control; assay type: functional
# Pseudomonas aeruginosa [5] = test: Antibiofilm activity against Pseudomonas aeruginosa PAO1 harboring wspF mutant incubated for 24 hrs by absorbance based assay; assay type: functional, organism-based
# Pseudomonas aeruginosa [6] = test: Antivirulence activity against Pseudomonas aeruginosa PAO1 assessed as reduction in elastase level incubated for 24 hrs by elastin-Congo red staining based analysis; assay type: functional, organism-based; conditions: dose <= 10.0 µM
# Pseudomonas aeruginosa [7] = test: Antivirulence activity against Pseudomonas aeruginosa PAO1 assessed as reduction in rhamnolipid level incubated for 24 hrs by orcinol based analysis; assay type: functional, organism-based; conditions: dose <= 10.0 µM
# Pseudomonas aeruginosa [8] = test: Antivirulence activity against Pseudomonas aeruginosa PAO1 assessed as reduction in pyocyanin level incubated for 24 hrs by absorbance based assay; assay type: functional, organism-based; conditions: dose <= 10.0 µM
# Pseudomonas aeruginosa [9] = test: Antivirulence activity against Pseudomonas aeruginosa PAO1 assessed as reduction in elastase level at 10 uM incubated for 24 hrs by elastin-Congo red staining based analysis relative to control; assay type: functional; parameters: scale not given: the % may be the effect or the level left
# Pseudomonas aeruginosa [10] = test: Antivirulence activity against Pseudomonas aeruginosa PAO1 assessed as reduction in rhamnolipid level at 10 uM incubated for 24 hrs by orcinol based analysis; assay type: functional, organism-based
# Pseudomonas aeruginosa [11] = test: Antivirulence activity against Pseudomonas aeruginosa PAO1 assessed as reduction in hemolysin level at 10 uM preincubated for 24 hrs followed by addition of erythrocytes measured after 30 mins by absorbance based analysis relative to control; assay type: functional; parameters: scale not given: the % may be the effect or the level left
# Pseudomonas aeruginosa [12] = test: Inhibition of beta-galactosidase in Pseudomonas aeruginosa PAO1 harboring mini-ctx-lacZ at 10 uM incubated for 6 hrs by ONPG test relative to control
# Pseudomonas aeruginosa [13] = test: Inhibition of beta-galactosidase in Pseudomonas aeruginosa PAO1 harboring mini-ctx-lasB-lacZ at 10 uM incubated for 6 hrs by ONPG test relative to control
# Pseudomonas aeruginosa [14] = test: Inhibition of beta-galactosidase in Pseudomonas aeruginosa PAO1 harboring mini-ctx-pqsA-lacZ at 10 uM incubated for 6 hrs by ONPG test relative to control
# Pseudomonas aeruginosa [15] = test: Inhibition of beta-galactosidase in Pseudomonas aeruginosa PAO1 harboring mini-ctx-lasB-lacZ incubated for 6 hrs by ONPG test; conditions: dose <= 10.0 µM
# Pseudomonas aeruginosa [16] = test: Inhibition of beta-galactosidase in Pseudomonas aeruginosa PAO1 harboring mini-ctx-pqsA-lacZ incubated for 6 hrs by ONPG test; conditions: dose <= 10.0 µM
# Pseudomonas aeruginosa [17] = test: Inhibition of beta-galactosidase in Pseudomonas aeruginosa PAO1 harboring mini-ctx-rhlA-lacZ at 10 uM incubated for 6 hrs by ONPG test relative to control
# Pseudomonas aeruginosa [18] = test: Inhibition of swarming motility of Pseudomonas aeruginosa PAO1 incubated overnight; assay type: functional, organism-based; conditions: dose <= 10.0 µM
# Pseudomonas aeruginosa [19] = test: Inhibition of swimming motility of Pseudomonas aeruginosa PAO1 incubated overnight; assay type: functional, organism-based; conditions: dose <= 10.0 µM
# Pseudomonas aeruginosa [20] = test: Inhibition of twitching motility of Pseudomonas aeruginosa PAO1 incubated overnight by crystal voilet staining based analysis; assay type: functional, organism-based; conditions: dose <= 10.0 µM
# Pseudomonas aeruginosa [21] = test: Inhibition of swarming motility of Pseudomonas aeruginosa PAO1 at 10 uM incubated overnight; assay type: functional, organism-based
# Pseudomonas aeruginosa [22] = test: Inhibition of swimming motility of Pseudomonas aeruginosa PAO1 at 10 uM incubated overnight relative to control; assay type: functional
# Pseudomonas aeruginosa [23] = test: Inhibition of twitching motility of Pseudomonas aeruginosa PAO1 at 10 uM incubated overnight by crystal voilet staining based analysis; assay type: functional, organism-based
# DNA [24] = test: Binding affinity to pBR322 DNA (unknown origin) assessed as DNA embedding toxicity at 50 uM preincubated for 10 mins followed by Topo I addition measured after 1 hr by TO dye based PAGE analysis; assay type: nucleic-acid assay; conditions: time 70.0 min
# DNA [25] = test: Binding affinity to pBR322 DNA (unknown origin) assessed as DNA migration at 50 uM preincubated for 10 mins followed by Topo I addition measured after 1 hr by TO dye based PAGE analysis; assay type: nucleic-acid assay; conditions: time 70.0 min
# [26] = Hemolytic activity in rabbit erythrocytes assessed as damage in cell membrane integrity at 100 uM incubated for 4 hrs by absorbance based assay; assay type: toxicity, Oryctolagus cuniculus; conditions: erythrocyte
# Vero = test: Cytotoxicity against African green monkey Vero cells at 12.5 uM incubated for 24 hrs by MTT assay; assay type: toxicity, cell-based; conditions: chlorocebus sabaeus
# Pseudomonas aeruginosa [27] = test: Synergistic antibacterial activity against Pseudomonas aeruginosa PAO1 assessed as bacterial growth inhibition at 20 uM incubated for 24 hrs in presence of tetracycline by CFU counting method; assay type: functional, organism-based
# [28] = Toxicity in Caenorhabditis elegans assessed as nematode survival upto 100 uM incubated for 96 hrs
# [29] = Toxicity in Caenorhabditis elegans infected with Pseudomonas aeruginosa PAO1 assessed as nematode survival at 10 uM incubated for 48 hrs
# [30] = Toxicity in Caenorhabditis elegans infected with Pseudomonas aeruginosa PAO1 assessed as nematode survival at 10 uM incubated for 48 hrs in presence of tetracycline
# [31] = Toxicity in Caenorhabditis elegans infected with Pseudomonas aeruginosa PAO1 assessed as reduction in nematode mortality rate at 10 uM incubated for 48 hrs in presence of TOB; parameters: scale not given: the % may be the effect or the level left
# [32] = Toxicity in Caenorhabditis elegans infected with hyper-biofilm phenotype Pseudomonas aeruginosa PAO1 harboring wspF mutant assessed as nematode death at 10 uM incubated for 48 hrs in presence of TOB
# [33] = Toxicity in Caenorhabditis elegans infected with hyper-biofilm phenotype Pseudomonas aeruginosa PAO1 harboring wspF mutant assessed as nematode death at 10 uM incubated for 48 hrs in presence of tetracycline
# Pseudomonas aeruginosa [34] = test: Synergistic inhibition of bacterial virulence of Pseudomonas aeruginosa PAO1 infected in Caenorhabditis elegans upto 10 uM incubated for 36 hrs in presence of tetracycline; assay type: functional, organism-based
# Pseudomonas aeruginosa [35] = test: Synergistic inhibition of bacterial virulence of Pseudomonas aeruginosa PAO1 infected in Caenorhabditis elegans upto 10 uM incubated for 36 hrs in presence of TOB; assay type: functional, organism-based
# Pseudomonas aeruginosa [36] = test: Synergistic inhibition of bacterial virulence of hyper-biofilm phenotype Pseudomonas aeruginosa PAO1 harboring wspF mutant upto 10 uM incubated for 36 hrs in presence of tetracycline; assay type: functional, organism-based
# Pseudomonas aeruginosa [37] = test: Synergistic inhibition of bacterial virulence of hyper-biofilm phenotype Pseudomonas aeruginosa PAO1 harboring wspF mutant upto 10 uM incubated for 36 hrs in presence of TOB; assay type: functional, organism-based
structure (smiles),measurement,setting,value
C[n+]1c(/C=C/c2cc3ccccc3[nH]2)ccc2ccccc21,inhibition,[1],1.42%
same,MIC,Pseudomonas aeruginosa [2],> 128 µM
C[n+]1c(/C=C/c2cccc3c2CCO3)ccc2ccccc21,inhibition,[1],9.4%
same,MIC,Pseudomonas aeruginosa [2],> 128 µM
Cc1cc(=O)c(O)c(/C=C/c2ccc3ccccc3[n+]2C)o1,inhibition,[1],4.86%
same,MIC,Pseudomonas aeruginosa [2],> 128 µM
C[n+]1c(/C=C/c2ccc3ccc(=O)oc3c2)ccc2ccccc21,inhibition,[1],2.74%
same,MIC,Pseudomonas aeruginosa [2],> 128 µM
C[n+]1c(/C=C/c2c[nH]c3cc(F)ccc23)ccc2ccccc21,inhibition,[1],9.14%
same,inhibition at 1.25 µM,Pseudomonas aeruginosa [3],~21%
same,MIC,Pseudomonas aeruginosa [2],> 128 µM
COc1ccc2c(/C=C/c3ccc4ccccc4[n+]3C)c[nH]c2c1,inhibition,[1],17.9%
same,inhibition at 1.25 µM,Pseudomonas aeruginosa [3],~21%
same,MIC,Pseudomonas aeruginosa [2],> 128 µM
COc1ccc2[nH]cc(/C=C/c3ccc4ccccc4[n+]3C)c2c1,inhibition,[1],16.6%
same,inhibition at 1.25 µM,Pseudomonas aeruginosa [3],~21%
same,MIC,Pseudomonas aeruginosa [2],> 128 µM
C[n+]1c(/C=C/c2coc3ccccc3c2=O)sc2ccccc21,inhibition,[1],7.3%
same,MIC,Pseudomonas aeruginosa [2],> 128 µM
C[n+]1c(/C=C/c2c[nH]c3ccc(O)cc23)ccc2ccccc21,inhibition,[1],7.32%
same,MIC,Pseudomonas aeruginosa [2],> 128 µM
Cc1ccc2[nH]cc(/C=C/c3ccc4ccccc4[n+]3C)c2c1,inhibition,[1],17%
same,inhibition at 1.25 µM,Pseudomonas aeruginosa [3],~21%
same,MIC,Pseudomonas aeruginosa [2],> 128 µM
C[n+]1c(/C=C/c2cscn2)sc2ccccc21,inhibition,[1],3.65%
same,MIC,Pseudomonas aeruginosa [2],> 128 µM
C[n+]1c(/C=C/c2c[nH]c3ccc(Cl)cc23)ccc2ccccc21,inhibition,[1],4.53%
same,MIC,Pseudomonas aeruginosa [2],> 128 µM
C[n+]1c(/C=C/c2c[nH]c3cc(Br)ccc23)ccc2ccccc21,inhibition,[1],0.5%
same,inhibition at 1.25 µM,Pseudomonas aeruginosa [3],~21%
same,MIC,Pseudomonas aeruginosa [2],> 128 µM
C[n+]1c(/C=C/c2c[nH]c3ccc(Br)cc23)ccc2ccccc21,inhibition,[1],2.52%
same,MIC,Pseudomonas aeruginosa [2],> 128 µM
C[n+]1c(/C=C/c2coc3ccccc3c2=O)ccc2ccccc21,inhibition,[1],1.21%
same,MIC,Pseudomonas aeruginosa [2],> 128 µM
C[n+]1c(/C=C/c2ccc3c(c2)CCO3)sc2ccccc21,inhibition,[1],3.6%
same,MIC,Pseudomonas aeruginosa [2],> 128 µM
C[n+]1c(/C=C/c2ccc3nc[nH]c3c2)ccc2ccccc21,inhibition,[1],1.69%
same,MIC,Pseudomonas aeruginosa [2],> 128 µM
C[n+]1c(/C=C/c2cc(=O)c(O)co2)ccc2ccccc21,inhibition,[1],0.45%
same,MIC,Pseudomonas aeruginosa [2],> 128 µM
C[n+]1c(/C=C/c2ccc3ocnc3c2)sc2ccccc21,inhibition,[1],1.14%
same,MIC,Pseudomonas aeruginosa [2],> 128 µM
CC[C@H]1OC(=O)[C@H](C)[C@@H](O[C@H]2C[C@@](C)(OC)[C@@H](O)[C@H](C)O2)[C@H](C)[C@@H](O[C@@H]2O[C@H](C)C[C@H](N(C)C)[C@H]2O)[C@](C)(O)C[C@@H](C)CN(C)[C@H](C)[C@@H](O)[C@]1(C)O [AZITHROMYCIN],inhibition at 10 µM,Pseudomonas aeruginosa [4],43.9%
C[n+]1c(/C=C/c2cc(=O)c(O)co2)sc2ccccc21,inhibition,[1],4.1%
same,MIC,Pseudomonas aeruginosa [2],> 128 µM
C[n+]1c(/C=C/c2ccc3ccc(=O)oc3c2)sc2ccccc21,inhibition,[1],2.42%
same,MIC,Pseudomonas aeruginosa [2],> 128 µM
C[n+]1c(/C=C/c2cscn2)ccc2ccccc21,inhibition,[1],4.55%
same,MIC,Pseudomonas aeruginosa [2],> 128 µM
C[n+]1c(/C=C/c2c[nH]c3cc(Cl)ccc23)ccc2ccccc21,inhibition,[1],3.02%
same,MIC,Pseudomonas aeruginosa [2],> 128 µM
C[n+]1c(/C=C/c2c[nH]c3ccccc23)sc2ccccc21,inhibition,[1],20.9%
same,inhibition at 1.25 µM,Pseudomonas aeruginosa [3],~21%
same,MIC,Pseudomonas aeruginosa [2],> 128 µM
C[n+]1c(/C=C/c2ccc3nc[nH]c3c2)sc2ccccc21,inhibition,[1],3.2%
same,MIC,Pseudomonas aeruginosa [2],> 128 µM
C[n+]1c(/C=C/c2cccc3ocnc23)ccc2ccccc21,inhibition,[1],2.91%
same,MIC,Pseudomonas aeruginosa [2],> 128 µM
Cc1cc(=O)c(O)c(/C=C/c2sc3ccccc3[n+]2C)o1,inhibition,[1],7.78%
same,MIC,Pseudomonas aeruginosa [2],> 128 µM
C[n+]1c(/C=C/c2cc3ccccc3[nH]2)sc2ccccc21,inhibition,[1],2.23%
same,MIC,Pseudomonas aeruginosa [2],> 128 µM
C[n+]1c(/C=C/c2c[nH]c3ccc([N+](=O)[O-])cc23)ccc2ccccc21,inhibition,[1],4.62%
same,MIC,Pseudomonas aeruginosa [2],> 128 µM
Cc1ccc2c(/C=C/c3ccc4ccccc4[n+]3C)c[nH]c2c1,inhibition,[1],16.2%
same,inhibition at 1.25 µM,Pseudomonas aeruginosa [3],~21%
same,MIC,Pseudomonas aeruginosa [2],> 128 µM
C[n+]1c(/C=C/c2c[nH]c3ccc(F)cc23)ccc2ccccc21.[I-],inhibition,[1],40.3%
same,inhibition at 1.25 µM,Pseudomonas aeruginosa [3],~21%
same,inhibition at 10 µM,Pseudomonas aeruginosa [4],~40%
same,inhibition,Pseudomonas aeruginosa [5],Dose-dependent-effect
same,IC50,"Pseudomonas aeruginosa [5]; PAO1, 24 h",23.4 µM
same,MIC,Pseudomonas aeruginosa [2],> 128 µM
same,Activity,Pseudomonas aeruginosa [6],Dose-dependent-effect
same,Activity,Pseudomonas aeruginosa [7],Dose-dependent-effect
same,Activity,Pseudomonas aeruginosa [8],Dose-dependent-effect
same,Activity,Pseudomonas aeruginosa [9],48.51%
same,Activity,Pseudomonas aeruginosa [10],Active; Exhibited Relatively Modest Activity
same,Activity,Pseudomonas aeruginosa [11],51.3%
same,inhibition,Pseudomonas aeruginosa [12],8.03%
same,inhibition,Pseudomonas aeruginosa [13],30%
same,inhibition,Pseudomonas aeruginosa [14],30%
same,inhibition,Pseudomonas aeruginosa [15],Dose-dependent-effect
same,inhibition,Pseudomonas aeruginosa [16],Dose-dependent-effect
same,inhibition,Pseudomonas aeruginosa [17],10%
same,inhibition,Pseudomonas aeruginosa [18],Dose-dependent-effect
same,inhibition,Pseudomonas aeruginosa [19],Dose-dependent-effect
same,inhibition,Pseudomonas aeruginosa [20],Dose-dependent-effect
same,inhibition,Pseudomonas aeruginosa [21],Active; Inhibitory Effect Was Comparable To Qs Deficient Pao1 Double Mutant Lasi/Rhli
same,inhibition at 10 µM,Pseudomonas aeruginosa [22],22.4%
same,inhibition,Pseudomonas aeruginosa [23],Active; Exhibited Only A Modest Impact
same,Activity,DNA [24],Not toxic
same,Activity,DNA [25],Not toxic
same,Activity,[26],Non-toxic
same,Activity,Vero,Non-toxic
same,Activity,Pseudomonas aeruginosa [27],Active
same,Activity,[28],Non-toxic
same,Activity,[29],Toxic
same,Survival,[30],86.3%
same,Activity,[31],~ 50%
same,Activity,[32],Non-toxic
same,Activity,[33],Non-toxic
same,Activity,Pseudomonas aeruginosa [34],Active
same,Activity,Pseudomonas aeruginosa [35],Active
same,Activity,Pseudomonas aeruginosa [36],Active
same,Activity,Pseudomonas aeruginosa [37],Active
